Literature values as cited in US12115137B2, “Synergistic combinations of atorvastatin and cannabidiol (CBD)” (Indication BioScience LLC, priority 2016, dated 2024).

How the values were obtained:
CYP3A4 = CYP3A4 (Homo sapiens, UniProt P08684); settings: Yamaori et al. 2011
CYP2C9 = CYP2C9 (Homo sapiens, UniProt P11712); settings: Jiang at 333 and references cited
[1] = oral, humans
CYP2C19 = CYP2C19 (Homo sapiens, UniProt P33261); settings: Jiang et al. 2013
[2] = with potent CYP3A4 inhibitors such as itraconazole
[3] = not given; remark: listed apart in the source

CYP2C9, sequence (P11712 whole entry): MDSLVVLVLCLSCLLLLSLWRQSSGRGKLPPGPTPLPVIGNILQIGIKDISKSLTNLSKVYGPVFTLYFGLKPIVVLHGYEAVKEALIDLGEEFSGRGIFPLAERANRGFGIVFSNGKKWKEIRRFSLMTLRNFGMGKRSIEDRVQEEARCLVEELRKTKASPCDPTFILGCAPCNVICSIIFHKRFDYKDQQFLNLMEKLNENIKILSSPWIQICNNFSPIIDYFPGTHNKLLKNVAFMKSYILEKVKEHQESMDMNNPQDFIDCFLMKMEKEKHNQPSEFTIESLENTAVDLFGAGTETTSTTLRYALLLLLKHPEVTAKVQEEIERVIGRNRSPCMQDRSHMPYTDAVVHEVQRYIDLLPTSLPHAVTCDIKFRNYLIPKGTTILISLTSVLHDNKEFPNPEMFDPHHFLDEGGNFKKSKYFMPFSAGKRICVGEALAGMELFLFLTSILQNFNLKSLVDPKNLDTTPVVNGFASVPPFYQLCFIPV
CYP3A4, sequence (P08684 whole entry): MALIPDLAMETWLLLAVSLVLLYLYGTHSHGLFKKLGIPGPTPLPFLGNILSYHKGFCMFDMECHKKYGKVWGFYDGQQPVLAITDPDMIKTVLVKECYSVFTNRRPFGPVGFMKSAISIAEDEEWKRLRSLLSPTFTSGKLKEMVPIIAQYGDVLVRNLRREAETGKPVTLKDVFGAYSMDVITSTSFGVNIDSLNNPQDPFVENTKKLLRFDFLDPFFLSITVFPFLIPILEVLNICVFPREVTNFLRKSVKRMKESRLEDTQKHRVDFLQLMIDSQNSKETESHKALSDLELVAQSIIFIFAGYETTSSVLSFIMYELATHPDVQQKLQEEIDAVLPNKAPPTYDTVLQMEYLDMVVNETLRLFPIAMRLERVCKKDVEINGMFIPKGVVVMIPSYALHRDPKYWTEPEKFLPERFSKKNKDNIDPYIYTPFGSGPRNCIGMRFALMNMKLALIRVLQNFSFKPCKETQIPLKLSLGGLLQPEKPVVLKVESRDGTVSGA
CYP2C19, sequence (P33261 whole entry): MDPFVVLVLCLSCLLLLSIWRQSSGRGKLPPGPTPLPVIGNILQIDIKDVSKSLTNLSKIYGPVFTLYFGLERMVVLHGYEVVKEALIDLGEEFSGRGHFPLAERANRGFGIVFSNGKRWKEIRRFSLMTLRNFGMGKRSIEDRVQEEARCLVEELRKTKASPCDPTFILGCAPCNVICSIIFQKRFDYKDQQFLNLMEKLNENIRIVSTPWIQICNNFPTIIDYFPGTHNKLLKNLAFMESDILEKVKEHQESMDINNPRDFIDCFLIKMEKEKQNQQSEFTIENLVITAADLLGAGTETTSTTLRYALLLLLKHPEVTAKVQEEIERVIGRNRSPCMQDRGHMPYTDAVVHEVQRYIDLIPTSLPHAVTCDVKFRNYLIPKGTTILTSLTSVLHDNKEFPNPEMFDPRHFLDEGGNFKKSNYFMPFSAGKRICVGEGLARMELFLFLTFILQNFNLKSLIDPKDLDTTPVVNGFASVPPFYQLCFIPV

## C=C(C)[C@@H]1CCC(C)=C[C@H]1c1c(O)cc(CCCCC)cc1O [CBD, 2-[(1R,6R)-6-isopropenyl-3-methylcyclohex-2-en-1-yl]-5-pentylbenzene-1,3-diol]
CYP3A4
  inhibition of CYP3A4: potent inhibitor
CYP2C9
  inhibition of CYP2C9: potent inhibitor
With ketoconazole, a strong inhibitor of CYP3A4
  increase in plasma concentration of CBD: about two-fold
With rifampin, a CYP3A4 inducer
  reduction of CBD levels: 50-60%
[1]
  bioavailability of CBD administered orally: approximately 6%
CYP2C19
  inhibition of CYP2C19: potent inhibitor

## CC(C)c1c(C(=O)Nc2ccccc2)c(-c2ccccc2)c(-c2ccc(F)cc2)n1CC[C@@H](O)C[C@@H](O)CC(=O)O [atorvastatin]
[2]
  increase in statin serum concentration: two- to four-fold

## COCc1c(C(C)C)nc(C(C)C)c(/C=C/[C@@H](O)C[C@@H](O)CC(=O)O)c1-c1ccc(F)cc1 [cerivastatin]
[3]; before market withdrawal in 2001
  deaths attributed to kidney failure from drug-related rhabdomyolysis: 52 deaths
[3]; compared with other approved statins
  rate of fatal rhabdomyolysis relative to other approved statins: ten times more common
